Reference: patent US4906623A, “3-Imidazolium cephalosporin derivatives” (Otsuka Kagaku Kabushiki Kaisha, priority 1985, dated 1990)
Values after ≈ are worked out from the molar mass of the structure shown. Read-outs that look alike come from different tables or passages of the source.

Columns and labels:
Assay in all cases: in vitro anti-bacterial activity, two-fold agar plate dilution method
Assay type in all cases: cell-based
[1] = test system: Escherichia coli NIHJ-JC2
Method: (§1) The agent for preventing and treating bacterial infections was tested for in vitro anti-bacterial activity by the following two-fold agar plate dilution method. Each test strain was incubated for 20 hours in a bouillon for measuring sensitivity to obtain a test culture (containing about […]). Portions of sensitivity measuring agar medium containing varying concentrations of the antibacterial agent were each innoculated with a 0.005 ml portion of the culture, followed by incubation at 37° C. for 20 hours. The minimum growth inhibitory concentration (MIC) in μg/ml was then determined.
(§2) MIC=minimum inhibitory concentration

[2] = test system: Proteus vulgaris
Method: as §1, §2

[3] = test system: Klebsiella pneumoniae
Method: as §1, §2

[4] = test system: Staphylococcus aureus 209P; conditions: Staphylococcus aureus 209P; agar dilution, 37° C., 20 hours; read-out: MIC
Method: as §1, §2

[5] = test system: Pseudomonas cepacia; conditions: Burkholderia cepacia, 37° C., 20 hours, read-out: MIC
Method: as §1, §2

[6] = test system: Serratia marcescens
Method: as §1, §2

[7] = test system: Escherichia coli CSH(RE45); conditions: 37° C., 20 hours, read-out: MIC
Method: as §1, §2

[8] = test system: Pseudomonas aeruginosa
Method: as §1, §2

[9] = test system: Proteus mirabilis
Method: as §1, §2

[10] = NIHJJC2, Escherichia coli NIHJ-JC2, agar dilution, 37° C., 20 hours, read-out: MIC
[11] = agar dilution, 37° C., 20 hours, read-out: MIC

| Structure (SMILES) | MIC [1, 10] | MIC ([2]; 20 h) | MIC [3, 11] | MIC [4] | MIC [5] | MIC [6, 11] | MIC [7] | MIC [8, 11] | MIC ([9]; 20 h) | MIC ([3]; 20 h) | MIC ([6]; 20 h) | MIC ([8]; 20 h) | MIC ([1]; Escherichia coli, NIHJJC2, 20 h) | MIC [2, 11] | MIC [9, 11] |
| --- | --- | --- | --- | --- | --- | --- | --- | --- | --- | --- | --- | --- | --- | --- | --- |
| CC(C)(O/N=C(\C(=O)NC1C(=O)N2C(C(=O)[O-])=C(C[n+]3cn(Cc4ccccc4)c4ccccc43)CSC12)c1csc(N)n1)C(=O)O (stereo not drawn) [P, 7-{2-(2-aminothiazole-4-yl)-2-[potassium(2,2-dimethylacetate)oxyimino]acetamide}-3-(benz-3-N-benzyl-1-imidazoliomethyl)-3-cephem-4-carboxylate] | 3.13 µg/mL | 1.56 µg/mL | 6.25 µg/mL | 3.13 µg/mL | 50 µg/mL | 6.25 µg/mL | 1.56 µg/mL | 6.25 µg/mL | 3.13 µg/mL | – | – | – | – | – | – |
| C#CCn1c[n+](CC2=C(C(=O)[O-])N3C(=O)C(NC(=O)/C(=N\OC(C)(C)C(=O)O)c4csc(N)n4)C3SC2)c2ccccc21 (stereo not drawn) [Q, 7-{2-(2-aminothiazole-4-yl)-2-[potassium(2,2-dimethylacetate)oxyimino]acetamide}-3-[benz-3-N-(2-propynyl)-1-imidazoliomethyl]-3-cephem-4-carboxylate] | 0.2 µg/mL | 0.1 µg/mL | – | 3.13 µg/mL | 12.5 µg/mL | – | 0.2 µg/mL | – | 0.39 µg/mL | 0.78 µg/mL | 0.78 µg/mL | 3.13 µg/mL | – | – | – |
| C=C(C)Cn1c[n+](CC2=C(C(=O)[O-])N3C(=O)C(NC(=O)/C(=N\OC(C)(C)C(=O)O)c4csc(N)n4)C3SC2)c2ccccc21 (stereo not drawn) [R, 7-{2-(2-aminothiazole-4-yl)-2-[potassium(2,2-dimethylacetate)oxyimino]acetamide}-3-[benz-3-N-(2-methyl-2-propenyl)-1-imidazoliomethyl]-3-cephem-4-carboxylate] | 0.78 µg/mL | 0.78 µg/mL | – | 6.25 µg/mL | 25 µg/mL | – | 1.56 µg/mL | 12.5 µg/mL | 3.13 µg/mL | 3.13 µg/mL | 1.56 µg/mL | – | – | – | – |
| CCCCn1c[n+](CC2=C(C(=O)[O-])N3C(=O)C(NC(=O)/C(=N\OC(C)(C)C(=O)O)c4csc(N)n4)C3SC2)c2ccccc21 (stereo not drawn) [T, 7-{2-(2-aminothiazole-4-yl)-2-[potassium(2,2-dimethylacetate)oxyimino]acetamide}-3-(benz-3-N-butyl-1-imidazoliomethyl)-3-cephem-4-carboxylate] | 1.56 µg/mL | 0.78 µg/mL | – | 3.13 µg/mL | 25 µg/mL | – | 0.39 µg/mL | 6.25 µg/mL | 3.13 µg/mL | 3.13 µg/mL | 1.56 µg/mL | – | – | – | – |
| C=CCn1c[n+](CC2=C(C(=O)[O-])N3C(=O)C(NC(=O)/C(=N\OC(C)(C)C(=O)O)c4csc(N)n4)C3SC2)c2ccccc21 (stereo not drawn) [U, 7-{2-(2-aminothiazole-4-yl)-2-[potassium(2,2-dimethylacetate)oxyimino]acetamide}-3-[benz-3-N-(2-propenyl)-1-imidazoliomethyl]-3-cephem-4-carboxylate] | 0.39 µg/mL | 0.39 µg/mL | – | 6.25 µg/mL | 25 µg/mL | – | 0.2 µg/mL | 6.25 µg/mL | 1.56 µg/mL | 0.78 µg/mL | 1.56 µg/mL | – | – | – | – |
| C=CCn1c[n+](CC2=C(C(=O)[O-])N3C(=O)C(NC(=O)/C(=N\OC)c4csc(N)n4)C3SC2)c2ccccc21 (stereo not drawn) [V, 7-[2-(2-aminothiazole-4-yl)-2-methoxyiminoacetamide}-3-[benz-3-N-(2-propenyl)-1-imidazoliomethyl]-3-cephem-4-carboxylate] | – | – | 1.56 µg/mL (≈ 2.82 µM) | 3.13 µg/mL (≈ 5.65 µM) | > 100 µg/mL | 12.5 µg/mL (≈ 22.6 µM) | 3.13 µg/mL (≈ 5.65 µM) | > 100 µg/mL | – | – | – | – | 0.78 µg/mL (≈ 1.41 µM) | 3.13 µg/mL (≈ 5.65 µM) | 6.25 µg/mL (≈ 11.3 µM) |
| C=CCO/N=C(\C(=O)NC1C(=O)N2C(C(=O)[O-])=C(C[n+]3cn(CC=C)c4ccccc43)CSC12)c1csc(N)n1 (stereo not drawn) [W, 7-[2-(2-aminothiazole-4-yl)-2-(2-propenyloxyimino)acetamide]-3-[benz-3-N-(2-propeny)-1-imidazoliomethyl]-3-cephem-4-carboxylate] | 3.13 µg/mL (≈ 5.4 µM) | 3.13 µg/mL (≈ 5.4 µM) | 6.25 µg/mL (≈ 10.8 µM) | 1.56 µg/mL (≈ 2.69 µM) | > 100 µg/mL | 25 µg/mL (≈ 43.1 µM) | 1.56 µg/mL (≈ 2.69 µM) | 50 µg/mL (≈ 86.3 µM) | – | – | – | – | – | – | 6.25 µg/mL (≈ 10.8 µM) |
| CC=CCn1c[n+](CC2=C(C(=O)[O-])N3C(=O)C(NC(=O)/C(=N\OC(C)(C)C(=O)O)c4csc(N)n4)C3SC2)c2ccccc21 (stereo not drawn) [X, 7-{2-(2-aminothiazole-4-yl)-2-[potassium(2,2-dimethylacetate)oxyimino]acetamide}-3-[benz-3-N-(2-butenyl)-1-imidazoliomethyl]-3-cephem-4-carboxylate] | 1.56 µg/mL | 1.56 µg/mL | – | 6.25 µg/mL | 50 µg/mL | – | 0.78 µg/mL | 12.5 µg/mL | 1.56 µg/mL | 3.13 µg/mL | 1.56 µg/mL | – | – | – | – |
| CC(C)=CCn1c[n+](CC2=C(C(=O)[O-])N3C(=O)C(NC(=O)/C(=N\OC(C)(C)C(=O)O)c4csc(N)n4)C3SC2)c2ccccc21 (stereo not drawn) [Y, 7-{2-(2-aminothiazole-4-yl)-2-[potassium(2,2-dimethylacetate)oxyimino]acetamide}-3-[benz-3-N-(3-methyl-2-butenyl)-1-imidazoliomethyl]-3-cephem-4-carboxylate] | 6.25 µg/mL | 3.13 µg/mL | 12.5 µg/mL | 6.25 µg/mL | > 100 µg/mL | 12.5 µg/mL | 1.56 µg/mL | 25 µg/mL | – | – | – | – | – | – | 6.25 µg/mL |
